One assay has as its target T1, Human PARP-1 enzyme (Homo sapiens, UniProt P09874).
T1 construct: purchased Trevigen
Put plainly: In vitro Scintillation Proximity Assay (SPA) for PARP-1 inhibitory activity. Type of assay: biochemical. As to conditions: read-out: in vitro SPA assay PARP-1 pIC50 (converted). The method in brief: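 SPA assay: nicked-DNA-activated PARP-1 (0.1–0.2 μg/ml) ADP-ribosylates biotinylated histones (2 μg/ml) using [3H]-NAD+, 20 min at RT in Tris pH 8/DTT/MgCl2, stopped with 2 mM NAD+. Blank-subtracted cpm expressed as % control; IC50 by linear interpolation, reported as pIC50 (10−5 to 3×10−9 M tested).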

The next assay deals with PC3 cells. The assay can be described thus: EB1 Comet (microtubule disruption) assay. Type of assay: cell-based, human. The settings on record: Homo sapiens, PC-3, 1 h, 1 hour treatment, read-out: EB1 pLAC (converted). The method in brief:
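PC3 human prostate cancer cells exposed to compound for 1 h at 37 °C (0.6% DMSO final), methanol-fixed, immunostained for Eb1 and imaged at 20×. Value is the lowest active concentration (LAC): the concentration at which Eb1 foci are absent in at least 50% of treated cells.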

Another assay deals with tubulin. Put plainly: Tubulin polymerization assay. Type of assay: biochemical. Details: key: a compound showing 0 to 50% inhibition at 20 μM is reported as score 1; Score 2 compounds are defined as compound showing more than 50% inhibition at 20 μM and less than 50% inhibition at 5 μM; a compound showing more than 50% inhibition at 5 μM is reported as score 3. The settings on record: tested at 20 μM and 5 μM. In outline: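 Cytoskeleton kit tubulin was run in a 10 µl final volume at 37 °C, with fluorescence read every minute for 1 h. Polymerization was taken as the maximum slope (4-point linear regression) and expressed as % of no-compound control. Compounds were tested at 20 µM, then at 5 µM if inhibition exceeded 50%, and scored by % inhibition.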

T1 sequence (P09874 whole entry): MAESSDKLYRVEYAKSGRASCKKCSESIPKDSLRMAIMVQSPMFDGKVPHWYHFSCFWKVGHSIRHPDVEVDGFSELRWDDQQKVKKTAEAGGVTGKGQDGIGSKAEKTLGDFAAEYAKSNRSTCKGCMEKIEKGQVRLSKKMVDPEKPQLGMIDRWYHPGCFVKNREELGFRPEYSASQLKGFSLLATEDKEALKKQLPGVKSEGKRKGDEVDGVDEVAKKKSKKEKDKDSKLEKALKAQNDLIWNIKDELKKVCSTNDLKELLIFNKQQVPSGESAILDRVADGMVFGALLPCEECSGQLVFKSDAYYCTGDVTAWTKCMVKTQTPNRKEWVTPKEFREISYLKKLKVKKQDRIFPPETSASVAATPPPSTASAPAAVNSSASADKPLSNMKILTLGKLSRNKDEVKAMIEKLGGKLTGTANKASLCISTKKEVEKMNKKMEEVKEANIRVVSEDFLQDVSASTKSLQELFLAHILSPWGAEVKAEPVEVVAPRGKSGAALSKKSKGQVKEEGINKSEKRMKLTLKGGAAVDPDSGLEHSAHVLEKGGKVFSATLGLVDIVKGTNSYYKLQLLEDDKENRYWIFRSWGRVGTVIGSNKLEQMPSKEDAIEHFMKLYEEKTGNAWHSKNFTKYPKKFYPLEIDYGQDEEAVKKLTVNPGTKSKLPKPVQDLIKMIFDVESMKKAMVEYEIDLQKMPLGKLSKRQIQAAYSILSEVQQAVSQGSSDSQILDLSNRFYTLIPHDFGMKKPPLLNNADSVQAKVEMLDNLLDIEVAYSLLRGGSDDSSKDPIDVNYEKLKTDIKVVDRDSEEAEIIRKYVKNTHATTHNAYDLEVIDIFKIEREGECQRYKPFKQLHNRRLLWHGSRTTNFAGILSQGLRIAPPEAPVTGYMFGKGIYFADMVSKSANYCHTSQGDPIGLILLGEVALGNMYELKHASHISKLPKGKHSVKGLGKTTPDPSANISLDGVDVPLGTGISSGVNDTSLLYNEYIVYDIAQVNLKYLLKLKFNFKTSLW

Take `CCc1cc2ccc([C@@](C)(C#N)Cc3cccc(N(C)C)c3)cc2[nH]c1=O` (single isomer, unassigned) [Compound 258]: the IC50 on Human PARP-1 enzyme is 50.1 nM. Besides, in the assay with PC3 cells, the minimal effective concentration was 0.316 µM.

With `CCc1cc2ccc([C@](C)(C#N)Cc3cccc(N(C)C)c3)cc2[nH]c1=O` (single isomer, unassigned) [Compound 259], the IC50 at Human PARP-1 enzyme was 79.4 nM.

`CCC[C@@](C#N)(Cc1ccccc1)c1ccc2cc(CC)c(=O)[nH]c2c1` (single isomer, unassigned) [Compound 263]: the IC50 at Human PARP-1 enzyme was 631 nM. The minimal effective concentration in the assay with PC3 cells is 3.16 µM. As to `CCC[C@](C#N)(Cc1ccccc1)c1ccc2cc(CC)c(=O)[nH]c2c1` (single isomer, unassigned) [Compound 264], at Human PARP-1 enzyme, the IC50 was 398 nM. Turning to `CCc1cc2ccc([C@@](C)(C#N)Cc3cccc(C#N)c3)cc2[nH]c1=O` (single isomer, unassigned) [Compound 268], the IC50 on Human PARP-1 enzyme is 50.1 nM. Further, the tubulin polymerisation score in the assay on tubulin is reported as 1 (a compound showing 0 to 50% inhibition at 20 μM is reported as score 1). On to `CCc1cc2ccc([C@](C)(C#N)Cc3cccc(C#N)c3)cc2[nH]c1=O` (single isomer, unassigned) [Compound 269], for which the IC50 at Human PARP-1 enzyme is 31.6 nM. The same compound yielded a tubulin polymerisation score in the assay on tubulin of 2. Also, the minimal effective concentration in the assay with PC3 cells was 0.1 µM. As for `CCc1cc2ccc([C@](C)(C#N)C[C@@H]3Cc4cc(C)ccc4O3)cc2[nH]c1=O` (single isomer, unassigned) [Compound 400], on Human PARP-1 enzyme, the IC50 was 398 nM. Turning to `CCc1cc2ccc(C(C)(C#N)Cc3cccc(OC[C@@H](O)CO)c3)cc2[nH]c1=O` (some centres unmarked) [Compound 56], at Human PARP-1 enzyme, the IC50 is 100 nM. The minimal effective concentration with PC3 cells is 3.16 µM. For `CCc1cc2ccc(C(C)(C#N)Cc3cccc(CNS(C)(=O)=O)c3)cc2[nH]c1=O` (centres unmarked) [Compound 170] the same measures were 79.4 nM and 3.16 µM. For `CCc1cc2ccc([C@](C)(C#N)[C@H](C)c3ccccc3)cc2[nH]c1=O` [Compound 200] the same measures were 251 nM and 0.316 µM. On to `CCc1cc2ccc(C(C)(C#N)Cc3cccc(C#C[Si](C)(C)C)n3)cc2[nH]c1=O` (centres unmarked) [Compound 210], for which, at Human PARP-1 enzyme, the IC50 is 398 nM. Further, the minimal effective concentration in the assay on PC3 cells was 0.316 µM. `CCc1cc2ccc(C(C)(C#N)Cc3cccc(OCCOC)n3)cc2[nH]c1=O` (centres unmarked) [Compound 219]: at Human PARP-1 enzyme, the IC50 is 100 nM. Moreover, in the assay on PC3 cells, the minimal effective concentration was 1 µM. Turning to `CCc1cc2ccc(C(C)(C#N)Cc3cccc(OCCO)c3)cc2[nH]c1=O` (centres unmarked) [Compound 262], on Human PARP-1 enzyme, the IC50 was 79.4 nM. Moreover, the tubulin polymerisation score in the assay with tubulin came to 2.

`CCc1cc2ccc(C(C)(C#N)CCOc3cccc(C(F)(F)F)c3)cc2[nH]c1=O` (centres unmarked) [Compound 274]: on Human PARP-1 enzyme, the IC50 is 501 nM.

Consider `CCc1cc2ccc(C(C)(C#N)Cc3cccc(CN)c3)cc2[nH]c1=O` (centres unmarked) [Compound 290], for which the IC50 at Human PARP-1 enzyme is 50.1 nM. Further, the tubulin polymerisation score in the assay with tubulin is 1 (a compound showing 0 to 50% inhibition at 20 μM is reported as score 1). Besides, the minimal effective concentration in the assay with PC3 cells is 3.16 µM.

For `CCc1cc2ccc(C(C)(C#N)Cc3cccc(/C=C/S(C)(=O)=O)c3)cc2[nH]c1=O` (centres unmarked) [Compound 292], at Human PARP-1 enzyme, the IC50 is 63.1 nM. Besides, the minimal effective concentration in the assay on PC3 cells was 0.1 µM. For `CCc1c(Cl)c2ccc(C(C)(C#N)Cc3cccc(C#N)c3)cc2[nH]c1=O` (centres unmarked) [Compound 293] the same measures were 398 nM and 1 µM. `CCc1cc2cc(OC)c(C(C)(C#N)Cc3ccccc3)cc2[nH]c1=O` (centres unmarked) [Compound 294]: the IC50 on Human PARP-1 enzyme is 251 nM. For the compound `CCc1cc2ccc(C(C)(C#N)Cc3cccc(C#CCOC)c3)cc2[nH]c1=O` (centres unmarked) [Compound 297], on Human PARP-1 enzyme, the IC50 is 79.4 nM. The minimal effective concentration in the assay on PC3 cells is 0.1 µM. For `CCc1cc2ccc(C(C)(C#N)Cc3cccc(C#CCN(C)C)c3)cc2[nH]c1=O` (centres unmarked) [Compound 298] the same measures were 501 nM and 1 µM. Consider `CCc1cc2ccc(C(C)(C#N)CNCc3cccc(C#N)c3)cc2[nH]c1=O` (centres unmarked) [Compound 301], for which the IC50 on Human PARP-1 enzyme is 100 nM. Also, in the assay with PC3 cells, the minimal effective concentration is 3.16 µM.

With `CCc1cc2ccc(C(C)(C#N)Cc3cnc(Cl)nc3Cl)cc2[nH]c1=O` (centres unmarked) [Compound 306], the IC50 on Human PARP-1 enzyme is 79.4 nM. Besides, the minimal effective concentration in the assay on PC3 cells is 3.16 µM. Take `COc1cc(OC)nc(CC(C)(C#N)c2ccc3cc(C)c(=O)[nH]c3c2)n1` (centres unmarked) [Compound 308]: the IC50 on Human PARP-1 enzyme is 631 nM. In the assay on tubulin, the tubulin polymerisation score came out at 2.

On to `CCOc1cc(OCC)nc(CC(C)(C#N)c2ccc3cc(CC)c(=O)[nH]c3c2)n1` (centres unmarked) [Compound 309], for which the IC50 on Human PARP-1 enzyme is 158 nM. Also, the minimal effective concentration with PC3 cells was 3.16 µM.

As for `CCc1cc2ccc(C(C)(C#N)Cc3cccc(Cl)n3)cc2[nH]c1=O` (centres unmarked) [Compound 310], the IC50 at Human PARP-1 enzyme was 100 nM. Also, in the assay with PC3 cells, the minimal effective concentration is 1 µM. `CCc1cc2ccc(C(C)(C#N)Cc3ncc(C)c(OC)c3C)cc2[nH]c1=O` (centres unmarked) [Compound 311]: the IC50 at Human PARP-1 enzyme was 126 nM. Besides, in the assay on PC3 cells, the minimal effective concentration is 3.16 µM. In the case of `CCc1cc2ccc(C(C)(C#N)Cc3ccc(C)nc3)cc2[nH]c1=O` (centres unmarked) [Compound 327], the IC50 at Human PARP-1 enzyme was 100 nM. The tubulin polymerisation score with tubulin is given as 1 (a compound showing 0 to 50% inhibition at 20 μM is reported as score 1). As to `CCCn1ccnc1CC(C)(C#N)c1ccc2cc(CC)c(=O)[nH]c2c1` (centres unmarked) [Compound 335], on Human PARP-1 enzyme, the IC50 is 251 nM. The minimal effective concentration in the assay on PC3 cells is 10 µM. `CCc1cc2ccc(C(C)(C#N)Cc3ccc4ccccc4n3)cc2[nH]c1=O` (centres unmarked) [Compound 336]: the IC50 at Human PARP-1 enzyme is 79.4 nM. For the same compound, the minimal effective concentration in the assay with PC3 cells was 1 µM. The matching figures for `CCc1cc2ccc(C(C)(C#N)Cc3nccn3CC)cc2[nH]c1=O` (centres unmarked) [Compound 337]: 398 nM and 1 µM.

With `CCc1cc2ccc(C(C)(C#N)Cc3cccc(C)n3)cc2[nH]c1=O` (centres unmarked) [Compound 343], the IC50 on Human PARP-1 enzyme was 79.4 nM. Further, the minimal effective concentration in the assay with PC3 cells is 3.16 µM. For `CCc1cc2ccc(C(C)(C#N)Cc3cccc(Br)n3)cc2[nH]c1=O` (centres unmarked) [Compound 344] the same measures were 63.1 nM and 0.316 µM. With `CCc1cc2ccc(C(C)(C#N)Cc3cccc(CO)n3)cc2[nH]c1=O` (centres unmarked) [Compound 345], the IC50 at Human PARP-1 enzyme was 158 nM. The compound further had a tubulin polymerisation score with tubulin of 2. Take `CCc1cc2ccc(C(C)(C#N)Cc3ccc(OC)nc3)cc2[nH]c1=O` (centres unmarked) [Compound 352]: the IC50 at Human PARP-1 enzyme is 100 nM. The minimal effective concentration with PC3 cells is 1 µM. With `CCc1cc2ccc(C(C)(C#N)Cc3cccc(OC)n3)cc2[nH]c1=O` (centres unmarked) [Compound 353], on Human PARP-1 enzyme, the IC50 was 79.4 nM. Moreover, the tubulin polymerisation score in the assay on tubulin was found to be 2.

Take `CCc1cc2ccc(C(C)(C#N)Cc3cnc(OC)nc3Cl)cc2[nH]c1=O` (centres unmarked) [Compound 356]: the IC50 at Human PARP-1 enzyme was 126 nM. In addition, the minimal effective concentration with PC3 cells was 0.1 µM.

Consider `CCc1cc2ccc(C(C)(C#N)Cc3cnc(OC)nc3OC)cc2[nH]c1=O` (centres unmarked) [Compound 357], for which the IC50 at Human PARP-1 enzyme is 79.4 nM. Also, the minimal effective concentration in the assay with PC3 cells is 0.316 µM. Take `CCc1cc2ccc(C(C)(C#N)Cc3cc(OC)nc(OC)n3)cc2[nH]c1=O` (centres unmarked) [Compound 358]: at Human PARP-1 enzyme, the IC50 is 50.1 nM. The tubulin polymerisation score in the assay on tubulin is on record as 2. Consider `CCc1cc2ccc(C(C)(C#N)Cc3cc(OCCOC)nc(C)n3)cc2[nH]c1=O` (centres unmarked) [Compound 363], for which the IC50 at Human PARP-1 enzyme is 158 nM. Moreover, the minimal effective concentration in the assay with PC3 cells is 1 µM.

On to `CCc1cc2ccc(C(C)(C#N)Cc3cc(N(C)C)nc(Cl)n3)cc2[nH]c1=O` (centres unmarked) [Compound 364], for which, at Human PARP-1 enzyme, the IC50 is 158 nM. Besides, the minimal effective concentration with PC3 cells was 1 µM. The matching figures for `CCc1cc2ccc(C(C)(C#N)Cc3cc(OC)nc(C)n3)cc2[nH]c1=O` (centres unmarked) [Compound 366]: 126 nM and < 0.0316 µM. `CCc1cc2ccc(C(C)(C#N)Cc3cc(OCCOC)nc(Cl)n3)cc2[nH]c1=O` (centres unmarked) [Compound 367]: the IC50 at Human PARP-1 enzyme is 79.4 nM. For the same compound, in the assay on PC3 cells, the minimal effective concentration was 1 µM. The matching figures for `CCc1cc2ccc(C(C)(C#N)Cc3nc(C)cc(C)n3)cc2[nH]c1=O` (centres unmarked) [Compound 368]: 316 nM and 1 µM. Turning to `CCc1cc2ccc(C(C)(C#N)Cc3nccc(OCCOC)n3)cc2[nH]c1=O` (centres unmarked) [Compound 369], at Human PARP-1 enzyme, the IC50 was 126 nM. The minimal effective concentration with PC3 cells is 3.16 µM. In the case of `CCc1cc2ccc(C(C)(C#N)Cc3nc(Cl)cc(OCCOC)n3)cc2[nH]c1=O` (centres unmarked) [Compound 370], the IC50 at Human PARP-1 enzyme was 200 nM. For the same compound, the minimal effective concentration in the assay on PC3 cells is 1 µM. On to `CCc1cc2ccc(C(C)(C#N)Cc3cc(Cl)nc(Cl)c3)cc2[nH]c1=O` (centres unmarked) [Compound 372], for which the IC50 at Human PARP-1 enzyme is 100 nM. In addition, the minimal effective concentration in the assay with PC3 cells is 1 µM.

For the compound `CCc1cc2ccc(C(C)(C#N)Cc3cc(OC)ccn3)cc2[nH]c1=O` (centres unmarked) [Compound 373], on Human PARP-1 enzyme, the IC50 was 100 nM.

Turning to `CCc1cc2ccc(C(C)(C#N)CC3CCc4ccccc4O3)cc2[nH]c1=O` (centres unmarked) [Compound 399], the IC50 on Human PARP-1 enzyme was 316 nM. Further, the minimal effective concentration in the assay with PC3 cells is 0.316 µM.
